Data set [1] concerns the target T1, CHO cells expressing human CB2 receptors (Homo sapiens, UniProt P34972).
T1 construct: expressed in transfected cells; host or cells: CHO cells, stably transfected
The experiment in a line: cell-based LANCE cAMP assay. The note with it: forskolin-stimulated, RO-20-1724 present, FIG. 4. The procedure:
FIG. 4 relates to cAMP Assay Results. LANCE signal of CB2 ligands. Stably transfected CHO cells expressing human CB2 receptors were utilized to carry out the LANCE cAMP assay. […] Data is mean±SEM of all experiments of two or more performed in triplicate.
(§1) The antibodies are labeled with Alexa Fluor dye that is sensitive to energy emissions. Briefly, the cell-based LANCE cAMP assays were performed on 384-well ProxiPlates using CHO cells stably expressing the CB2 receptors at density of 2×10^3 cells per well in 5 μL of RPMI-1640 medium (Gibco Laboratories, Grand Island, N.Y.) containing 1% dialyzed FBS, 25 mM HEPES, […], and 200 μg/ml of […]. After incubation overnight, 2.5 μL of cAMP antibody and RO20-1724 (a phosphodiesterase inhibitor) in stimulation buffer (DPBS 1×, containing 0.1% BSA) was added to each well, followed by the addition of 2.5 μL of the compound plus the forskolin complex (an adenyl cyclase activator). After incubation at room temperature for 45 minutes, 10 μL of detection buffer was added into each well. The plate was then incubated at room temperature for 1 hour. The plate was then measured in a Synergy H1 hybrid reader (BioTek) with excitation at 340 nm and emission at 665 nm. The results represent at least two independent experiments each in triplicates. EC50 values were determined by nonlinear regression dose-response curve (GraphPad Prism 5).
as §1, with “Cyclic AMP levels were measured by performing the cell-based LANCE cAMP-384 kit assay (PerkinElmer) as previously described 13-14. The assay is based on the competition between the europium-labeled cAMP tracer complex and sample cAMP for binding sites on cAMP-specific antibodies. The antibodies” for “The antibodies”
The LANCE cAMP assay was carried out to measure the functional activities of our synthesized CB2 selective ligands as previously described 14. Briefly, the assay was performed on 384-well plates using CHO cells stably expressing CB2 receptors in the presence of phosphodiesterase inhibitor, RO-20-1724 and adenyl cyclase activator, forskolin.
For orientation: TR-FRET usually uses a lanthanide donor and a delayed reading to cut background.

The subject of data set [2] is osteoclast precursor RAW264.7 cells. The format is cell-based. Here is the method: FIGS. 6A and 6B relate to cAMP Assay Results. Cytotoxicity effects of the synthesized CB2 ligands. FIG. 5A: Cytotoxicity effects of compound 15. FIG. 5B: Cytotoxicity effects of compound 18. Osteoclast precursor RAW264.7 cells (1.5×10^3 cells/well) were seeded on 96-well plates. Cells were incubated with the indicated doses of compounds 15 and 18 for 48 hours. The percentage of cell survival was determined by the MTT assay. Data is the mean±SD of three experiments carried out in duplicate.
The cell-proliferation effect of our CB2 ligands on the osteoclast precursor RAW264.7 cells was assessed using MTT 3-(4,5-dimethylthiazol-2-yl)-2,5-diphenyltetrazolium bromide (Sigma, St. Louis, USA). […] Optical density was read at 540 nm and subtracted from the background at 720 nm. The effect of ligands on cell viability was expressed as percent cell viability, with vehicle-treated control cells set at 100% (Feng, R., et al., KD5170, a novel mercaptoketone-based histone deacetylase inhibitor, exerts antimyeloma effects by DNA damage and mitochondrial signaling. Mol Cancer Ther 2008, 7 (6), 1494-505).
The cytotoxicity assay was carried out to exclude that the high osteoclast formation inhibition effects were not due to the toxicity of the newly discovered compounds. The cytotoxic effects were measured by utilizing the MTT cell-viability assay. […]

Consider three compounds from patent publication US11059778B2, “Cannabinoid receptor CB2 ligand 4-(aminomethyl)-N, N-dialkylanilines” (UNIVERSITY OF PITTSBURGH—OF THE COMMONWEALTH SYSTEM OF …, priority 2015, dated 2021).

T1 sequence (P34972 whole entry): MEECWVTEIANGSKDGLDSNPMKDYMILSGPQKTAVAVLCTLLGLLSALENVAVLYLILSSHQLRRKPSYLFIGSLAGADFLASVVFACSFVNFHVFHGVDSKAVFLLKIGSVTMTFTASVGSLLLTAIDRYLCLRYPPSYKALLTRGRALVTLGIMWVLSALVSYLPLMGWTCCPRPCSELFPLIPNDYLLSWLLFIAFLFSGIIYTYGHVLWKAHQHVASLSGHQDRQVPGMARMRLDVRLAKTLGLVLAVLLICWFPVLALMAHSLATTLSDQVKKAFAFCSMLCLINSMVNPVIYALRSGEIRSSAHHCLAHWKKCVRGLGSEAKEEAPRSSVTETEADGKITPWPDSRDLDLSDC

As to `CCN(CC)c1ccc(CN(Cc2cc(OC)c(OC)c(OC)c2)C(=O)c2cccs2)cc1` [Compound 11, N-(4-(diethylamino)benzyl)-N-(3,4,5-trimethoxybenzyl)thiophene-2-carboxamide], the “CB2 functional activity (LANCE cAMP signal)” value (“CB2 functional activity” below) in data set [1] is listed as “CB2 selective agonist”. `CCN(CC)c1ccc(CN(Cc2cc(OC)c(OC)c(OC)c2)S(=O)(=O)/C=C/c2ccccc2)cc1` [Compound 15, (E)-N-(4-(diethylamino)benzyl)-2-phenyl-N-(3,4,5-trimethoxybenzyl)ethene-1-sulfonamidebenzenesulfonamide]: the “CB2 functional activity” value in data set [1] is “inverse agonists”. Besides, the “cell viability as compared to the control group (MTT)” value in data set [2] is listed as “not significantly altered”. As to `CCN(CC)c1ccc(CN(Cc2cc(OC)c(OC)c(OC)c2)S(=O)(=O)c2ccc(C=O)cc2)cc1` [Compound 18, N-(4-(diethylamino)benzyl)-4-formyl-N-(3,4,5-trimethoxybenzyl)benzenesulfonamide], the “CB2 functional activity” value in data set [1] was “inverse agonists”. For the same compound, in data set [2], the “cell viability as compared to the control group (MTT)” value is “not significantly altered”.
